Laboratory results: patent publication US10544130B2, “Metallo-beta-lactamase inhibitors” (priority 2015, dated 2020)
Read-outs that look alike come from different tables or passages of the source.

Legend:
[1] = system: Serratia marcescens expressing IMP-1 (CL5741); format: cell-based; settings: with imipenem 1 μg/ml, 95% inhibition of bacterial growth
Method: Antibiotic Potentiation Activity: Determination of Synergistic Concentration
The bacterial strains tested included the clinical strains Escherichia coli expressing NDM-1 (CLB30005, CLB30016), Serratia marcescens expressing IMP-1 (CL5741), and Klebsiella pneumoniae expressing VIM-1 (IHMA599644). Inhibitor activity was measured in the presence and absence of imipenem in a 384-well microplate.
The clinical strains CLB30016, CL5741 and IHMA599644 were grown on trypticase soy agar containing 5% sheep's blood. The bacteria on agar plates were incubated at 35° C. with humidity overnight. The following day, individual colonies from each clinical strain were picked and resuspended in 5 ml saline to attain an OD600 of 0.14, 0.11, 0.15 and 0.13, for CLB30016, CL5741 and IHMA599644, respectively. These were further diluted 1:100 into 1.1× CAMHB and used to inoculate the test wells as described below.
Imipenem in 10 mM 3-(N-morpholino)propanesulfonic acid (MOPS, pH 7) was stored in single use aliquots at −80° C. […] On the day of the assay, 4 μl of antibiotic was added to 45 ul of bacteria followed by 1 μl of test compound and mixed by pipetting and with an orbital shaker. The concentration of antibiotic used in the assay was 1 μg/ml. Microplates were covered and incubated at 35° C. for 22 hours to 24 hours. At the end of the incubation, absorbance was determined using a spectrophotometer.

[2] = system: Pseudomonas aeruginosa PAO1 MB9798 (efflux+, IMP-1); settings: ratio MITC95 PA 9798/MITC95 PA 9799; imipenem at 2 μg/mL
Outline: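 Isogenic PAO1 pair (efflux+ MB9798, efflux− MB9799, both IMP-1) tested by microbroth MIC with fixed imipenem and/or ceftazidime, usually at CLSI breakpoint, plus fixed class A/C inhibitor against AmpC. MBL inhibitor titrated; concentration restoring susceptibility recorded and fold difference between strains taken as efflux extent.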

Compound	Serratia marcescens (IMP-1) MITC95 [1] [µM]	Efflux ratio [2]	Serratia marcescens (IMP-1) MITC95 ([1]; CL5741) [µM]
NCCNS(=O)(=O)c1ccc(-c2cccc3[nH]c([C@H](N)CO)nc23)c(-c2nn[nH]n2)c1S(N)(=O)=O [Example 330, (S)-4-(2-(1-amino-2-hydroxyethyl)-1H-benzo[d]imidazol-4-yl)-N1-(2-aminoethyl)-3-(2H-tetrazol-5-yl)benzene-1,2-disulfonamide]	1.563	1.00	
Nc1nc2c(-c3ccc(S(=O)(=O)NC[C@@H]4CCNC4)c(S(N)(=O)=O)c3-c3nn[nH]n3)cccc2[nH]1 [Example 263, (R)-4-(2-amino-1H-benzo[d]imidazol-4-yl)-N1-(pyrrolidin-3-ylmethyl)-3-(2H-tetrazol-5-yl)benzene-1,2-disulfonamide]	0.7813	1.00	
Nc1ccc(-c2ccc(S(=O)(=O)N[C@H]3CCCNC3)c(S(N)(=O)=O)c2-c2nn[nH]n2)cn1 [Example 494, (S)-4-(6-aminopyridin-3-yl)-N1-(piperidin-3-yl)-3-(2H-tetrazol-5-yl)benzene-1,2-disulfonamide]			1.563
C[C@@H](N)CNS(=O)(=O)c1ccc(-c2ccc3nccn3c2)c(-c2nn[nH]n2)c1S(N)(=O)=O [Example 423, (R)-N^1-(2-aminopropyl)-4-(imidazo[1,2-a]pyridin-6-yl)-3-(2H-tetrazol-5-yl)benzene-1,2-disulfonamide]	0.7813		
C[C@H](N)CNS(=O)(=O)c1ccc(-c2ccc(N)nc2)c(-c2nn[nH]n2)c1S(N)(=O)=O [Example 479, (S)—N1-(2-aminopropyl)-4-(6-aminopyridin-3-yl)-3-(2H-tetrazol-5-yl) benzene-1,2-disulfonamide]	0.7813		
Nc1ccc(-c2ccc(S(=O)(=O)NCC3(O)CCNCC3)c(S(N)(=O)=O)c2-c2nn[nH]n2)cn1 [Example 492, 4-(6-aminopyridin-3-yl)-N1-((4-hydroxypiperidin-4-yl)methyl)-3-(2H-tetrazol-5-yl)benzene-1,2-disulfonamide]	1.563		
NCCNS(=O)(=O)c1ccc(-c2cccn3ccnc23)c(-c2nn[nH]n2)c1S(N)(=O)=O [Example 361, N1-(2-aminoethyl)-4-(imidazo[1,2-a]pyridin-8-yl)-3-(2H-tetrazol-5-yl)benzene-1,2-disulfonamide]	0.7813	1.00	
Nc1ccc(-c2ccc(S(=O)(=O)N3CCNCC3)c(S(N)(=O)=O)c2-c2nn[nH]n2)cn1 [Example 485, 3-(6-aminopyridin-3-yl)-6-(piperazin-1-ylsulfonyl)-2-(2H-tetrazol-5-yl)benzenesulfonamide]	0.7813		
CN(CCN)S(=O)(=O)c1ccc(-c2cccc3[nH]c(N)nc23)c(-c2nn[nH]n2)c1S(N)(=O)=O [Example 449, 4-(2-amino-1H-benzo[d]imidazol-4-yl)-N^1-(2-aminoethyl)-N^1-methyl-3-(2H-tetrazol-5-yl)benzene-1,2-disulfonamide]	1.563		
NC[C@@H](CO)NS(=O)(=O)c1ccc(-c2ccc(N)nc2)c(-c2nn[nH]n2)c1S(N)(=O)=O [Example 409, (S)-N^1-(1-amino-3-hydroxypropan-2-yl)-4-(6-aminopyridin-3-yl)-3-(2H-tetrazol-5-yl)benzene-1,2-disulfonamide]	1.563		
Nc1ncc(-c2ccc(S(=O)(=O)N[C@@H]3CCNC3)c(S(N)(=O)=O)c2-c2nn[nH]n2)s1 [Example 284, (R)-4-(2-aminothiazol-5-yl)-N1-(pyrrolidin-3-yl)-3-(2H-tetrazol-5-yl)benzene-1,2-disulfonamide]	0.7813		
NC[C@@H](N)CNS(=O)(=O)c1ccc(-c2ccc(N)nc2)c(-c2nn[nH]n2)c1S(N)(=O)=O [Example 416, (R)-4-(6-aminopyridin-3-yl)-N^1-(2,3-diaminopropyl)-3-(2H-tetrazol-5-yl)benzene-1,2-disulfonamide]	1.563		
Nc1ccc(-c2ccc(S(=O)(=O)NCC3(O)CNC3)c(S(N)(=O)=O)c2-c2nn[nH]n2)cn1 [Example 495, 4-(6-aminopyridin-3-yl)-N1-((3-hydroxyazetidin-3-yl)methyl)-3-(2H-tetrazol-5-yl)benzene-1,2-disulfonamide]			0.7813
Nc1ccc(-c2ccc(S(=O)(=O)NC[C@@H]3CCNC3)c(S(N)(=O)=O)c2-c2nn[nH]n2)cn1 [Example 491, (R)-4-(6-aminopyridin-3-yl)-N1-(pyrrolidin-3-ylmethyl)-3-(2H-tetrazol-5-yl)benzene-1,2-disulfonamide]	0.7813		
Nc1ccc(-c2ccc(S(=O)(=O)N[C@H]3CNC[C@H]3O)c(S(N)(=O)=O)c2-c2nn[nH]n2)cn1 [Example 410, 4-(6-aminopyridin-3-yl)-N^1-((3S,4R)-4-hydroxypyrrolidin-3-yl)-3-(2H-tetrazol-5-yl)benzene-1,2-disulfonamide]	0.7813		
CC1(NS(=O)(=O)c2ccc(-c3ccc(N)nc3)c(-c3nn[nH]n3)c2S(N)(=O)=O)CNC1.Cl.Cl [Example 497, 4-(6-aminopyridin-3-yl)-1-N-(3-methylazetidin-3-yl)-3-(2H-1,2,3,4-tetrazol-5-yl)benzene-1,2-disulfonamide hydrogen chloride]			0.7813
NCCCNS(=O)(=O)c1ccc(-c2cc(F)cc3[nH]c(N)nc23)c(-c2nn[nH]n2)c1S(N)(=O)=O [Example 402, 4-(2-amino-6-fluoro-1H-benzo[d]imidazol-4-yl)-N^1-(3-aminopropyl)-3-(2H-tetrazol-5-yl)benzene-1,2-disulfonamide]	0.7813		
Cl.Cl.NCCCNS(=O)(=O)c1ccc(-c2ccc(N)nc2)c(-c2nn[nH]n2)c1S(N)(=O)=O [Example 496, N1-(3-aminopropyl)-4-(6-aminopyridin-3-yl)-3-(2H-tetrazol-5-yl)benzene-1,2-disulfonamide hydrogen chloride]			0.7813
Cc1cc(-c2ccc(S(=O)(=O)NC[C@@H](O)CN)c(S(N)(=O)=O)c2-c2nn[nH]n2)cnc1N [Example 468, (S)-N1-(3-amino-2-hydroxypropyl)-4-(6-amino-5-methylpyridin-3-yl)-3-(2H-tetrazol-5-yl)benzene-1,2-disulfonamide]	0.7813		
NCCNS(=O)(=O)c1ccc(-c2ccnc(CN)c2)c(-c2nn[nH]n2)c1S(N)(=O)=O [Example 461, N1-(2-Aminoethyl)-4-(2-(aminomethyl)pyridin-4-yl)-3-(2H-tetrazol-5-yl)benzene-1,2-disulfonamide]	3.125		
C[C@@H](CN)NS(=O)(=O)c1ccc(-c2cc(F)cc3[nH]c(N)nc23)c(-c2nn[nH]n2)c1S(N)(=O)=O [Example 397, (S)-4-(2-amino-6-fluoro-1H-benzo[d]imidazol-4-yl)-N^1-(1-aminopropan-2-yl)-3-(2H-tetrazol-5-yl)benzene-1,2-disulfonamide]	0.7813		
Nc1ccc(-c2ccc(S(=O)(=O)NC3CC(N)C3)c(S(N)(=O)=O)c2-c2nn[nH]n2)cn1 [Example 483, N1-((1R,3R)-3-aminocyclobutyl)-4-(6-aminopyridin-3-yl)-3-(2H-tetrazol-5-yl)benzene-1,2-disulfonamide]	0.7813		
NC[C@H](CO)NS(=O)(=O)c1ccc(-c2cccc3nc(N)[nH]c23)c(-c2nn[nH]n2)c1S(N)(=O)=O [Example 427, (R)-4-(2-amino-1H-benzo[d]imidazol-4-yl)-N^1-(1-amino-3-hydroxypropan-2-yl)-3-(1H-tetrazol-5-yl)benzene-1,2-disulfonamide]	0.7813		
NC[C@@H](O)CNS(=O)(=O)c1ccc(-c2ccc3nccn3c2)c(-c2nn[nH]n2)c1S(N)(=O)=O [Example 420, (R)-N^1-(3-amino-2-hydroxypropyl)-4-(imidazo[1,2-a]pyridin-6-yl)-3-(2H-tetrazol-5-yl)benzene-1,2-disulfonamide]	1.563		
Nc1nc(-c2cccc(-c3ccc(S(=O)(=O)N[C@@H]4CCNC4)c(S(N)(=O)=O)c3-c3nn[nH]n3)c2)c[nH]1 [Example 428, (R)-3′-(2-amino-1H-imidazol-4-yl)-N^4-(pyrrolidin-3-yl)-2-(2H-tetrazol-5-yl)-[1,1′-biphenyl]-3,4-disulfonamide]	0.7813		
NCCNS(=O)(=O)c1ccc(-c2ccc3sc(CN)nc3c2)c(-c2nn[nH]n2)c1S(N)(=O)=O [Example 476, N1-(2-aminoethyl)-4-(2-(aminomethyl)benzo[d]thiazol-5-yl)-3-(2H-tetrazol-5-yl)benzene-1,2-disulfonamide]	0.7813		
